# Source: US20140088063A1, “AGENTS FOR TREATING NEURODEGENERATIVE DISORDERS” (priority 2010, published 2014)
# Marks after values point to notes of the source that are not given here.
# Key:
# male white rats [1] = assay: Modified behavioral despair test (water wheel); type: in vivo; details: 3 h
# Method: Nomura et al. (1982) published a modification of the despair swim test in mice involving small water wheel set in a water tank. Mice placed on this apparatus turned the wheel vigorously but when they abandoned attempts to escape from the water, the wheel stopped turning. Antidepressant activity of compounds was assessed by counting the number of rotations of the water wheel (see Table 4).
# (§1) The male white rats (250-280 g) were treated intraperitoneally according to procedure described below. The animals were divided into five groups of ten rats and treated as follows. The rats of first group were used as controls. They were injected intraperitoneally with distilled water 24 h, 3 h, 40 minutes before the experiment. Second group was treated with Compound Ia at a dose 100 mg/kg i.p. 24 h, 3 h, 40 minutes before the experiment. Third group was treated with Amitriptyline at a dose 10 mg/kg i.p. using the same regimen as in groups above.
# The antidepressant activity was assessed by estimating immobility time as a period in which animal remains immobile during swimming (see Table 4). Statistical data processing was performed using “BioStat” tool for Windows.
# male white rats [2] = assay: Behavioral despair test (forced swimming); type: in vivo; details: 3 h
# Method: This behavior reflects a state of despair which can be reduced by several agents which are therapeutically effective in human depression.
# as §1, with “I′” for “Ia”
# The antidepressant activity was assessed by estimating immobility time as a period in which animal remains immobile during swimming (see Table 2). Statistical data processing was performed using “BioStat” tool for Windows.
# C57BL/6J mice [3] = assay: Learned helplessness test (compounds of formula I); type: in vivo; details: percent of control (non-treated animals) taken as 100%; for Latency time, % 1/3 LD50: i.p. dose 1/3 of LD50; for Latency time, % 1/13 LD50: i.p. dose 1/13 of LD50
# Method: The learned helplessness test in mice is the well-known animal model to determine antidepressant efficacy of compounds. Basically when animals learned to be helpless are given antidepressant drugs, they unlearn helplessness and start exerting control over their environment.
# The C57BL/6J mice were treated intraperitoneally with compounds of formula I intraperitoneally at dose corresponding to ⅓ or 1/13 of lethal dose, then antidepressant activity of compounds was assessed by estimating latency time as a period in which animal is not trying to escape from stress (see Table 1).
# C57BL/6J mice [4] = assay: Black and white box test (light-dark test); type: in vivo; details: entries to the light zone; i.p.; percent of control (non-treated animals) taken as 100%
# Excerpt: The black and white test (also named light-dark test) is based on the conflict of natural tendencies of rodents to avoid lighted and open areas and to explore novel environments. Relative time spent in exploring each compartment indicates the anxiety level of the animal: Avoidance of the brightly lit area is considered reflecting “anxiety-like” behaviors. When treated with anxiolytic drugs, rodents spend more time in this area, an effect purportedly due to a decrease in anxiety.
# The C57BL/6J mice were treated intraperitoneally with compound of the invention, then anxiolytic efficacy of compounds of formula I was assessed by estimating the number of entries to the light zone (see Table 1).
# C57BL/6J mice [5] = assay: Toxicity test, median lethal dose after intraperitoneal injection; type: in vivo
# Method: Toxicity to mammals was measured after intraperitoneal injections of compounds of formula I to C57BL/6J mice. Median lethal dose (LD50) was calculated as described previously (see table 1).
# C57BL/6J mice [6] = assay: Learned helplessness test (compound of formula I′); type: in vivo
# Method: As explained above, the learned helplessness test in mice is the well-known animal model to determine antidepressant efficacy of compounds. Basically when animals learned to be helpless are given antidepressant drugs, they unlearn helplessness and start exerting control over their environment. Antidepressant activity of compounds was assessed by estimating latency time as a period in which animal is not trying to escape from stress (see Table 3). […]
# [7] = acute toxicity, known antidepressants for comparison; cited from earlier work
# [8] = 10 mg/kg i.p. 24 h, 40 minutes before the experiment (Fluoxetin as powder)
# [9] = 90 mg/kg i.p. once daily, 2 days course
# [10] = 90 mg/kg i.p. once daily, 6 days course
# [11] = 90 mg/kg i.p. once daily, 12 days course
# [12] = 100 mg/kg i.p. 24 h, 40 minutes before the experiment
# [13] = 100 mg/kg i.p. three times 24 h, 40 min before experiment
smiles,measurement,setting,value
"CN(C)CCC=C1c2ccccc2CCc2ccccc21 [Amitriptyline, reference compound]",Rotation number,male white rats [1]; [8],165.93 ± 35.41
same,Immobility time,male white rats [2]; [8],145.62 ± 45.39 s
CNCCC(Oc1ccc(C(F)(F)F)cc1)c1ccccc1 (centres unmarked) [Fluoxetin],Rotation number,male white rats [1]; [8],108.34 ± 53.96
same,Immobility time,male white rats [2]; [8],337.45 ± 36.69 s
same,Immobility time,"male white rats [2]; 20 mg/kg 24 h, 40 minutes before the experiment (Fluoxetin as tablet)",218.45 ± 38.87 s
"C1CCC2(CC1)NN2CCN1NC12CCCCC2 [Ia, meso-1S,2S,1′R,2′R-1-[2-(1,2-diazaspiro[2.5]oct-1-yl)ethyl]-1,2-diazaspiro[2.5]octane]","Latency time, % 1/3 LD50",C57BL/6J mice [3],56** %
same,"Latency time, % 1/13 LD50",C57BL/6J mice [3],72** %
same,"Number of entries, %",C57BL/6J mice [4],56** %
same,LD50,C57BL/6J mice [5],611 mg/kg
same,Latency time,C57BL/6J mice [6]; [9],13.6 ± 1.1 s
same,"Non-escaping animals, %",C57BL/6J mice [6]; [9],18** %
same,Latency time,C57BL/6J mice [6]; [10],7.5 ± 0.9 s
same,"Non-escaping animals, %",C57BL/6J mice [6]; [10],12** %
same,Latency time,C57BL/6J mice [6]; [11],6.2 ± 0.5 s
same,"Non-escaping animals, %",C57BL/6J mice [6]; [11],1.4** %
same,effect of single doses in learned helplessness test,C57BL/6J mice [6]; single dose,not effective
"CC1(C)NN1CCCCN1NC1(C)C [Ic, meso-1S,2S,1′R,2′R-1-[4-(3,3-dimethyldiaziridin-1-yl)butyl]-3,3-dimethyldiaziridine]","Latency time, % 1/3 LD50",C57BL/6J mice [3],188** %
same,"Latency time, % 1/13 LD50",C57BL/6J mice [3],104%
same,"Number of entries, %",C57BL/6J mice [4],62** %
same,LD50,C57BL/6J mice [5],1000 mg/kg
"CC1(C)NN1CCN1NC12CCCCC2 [Ie, meso-1S,2S,1′R,2′R-1-[2-(3,3-dimethyldiaziridin-1-yl)ethyl]-1,2-diazaspiro[2.5]octane]","Latency time, % 1/3 LD50",C57BL/6J mice [3],62** %
same,"Latency time, % 1/13 LD50",C57BL/6J mice [3],74** %
same,"Number of entries, %",C57BL/6J mice [4],75** %
same,LD50,C57BL/6J mice [5],1125 mg/kg
"C1CCC2(C1)NN2CCN1NC12CCCC2 [If, meso-1S,2S,1′R,2′R-1-[2-(1,2-diazaspiro[2.4]hept-1-yl)ethyl]-1,2-diazaspiro[2.4]heptane]","Latency time, % 1/3 LD50",C57BL/6J mice [3],95%
same,"Latency time, % 1/13 LD50",C57BL/6J mice [3],94%
same,"Number of entries, %",C57BL/6J mice [4],60** %
same,LD50,C57BL/6J mice [5],1150 mg/kg
"[H][N@]1[N@@](CC[N@@]2[N@]([H])C2(C)C)C1(C)C [I′, meso-1S,2S,1′R,2′R-1-[2-(3,3-dimethyldiaziridin-1-yl)ethyl]-3,3-dimethyldiaziridine]",Rotation number,male white rats [1]; [12],156.48 ± 26.79
same,antidepressant activity (modified behavioral despair test),male white rats [1]; [13],significant antidepressant activity
same,Immobility time,male white rats [2]; [12],291.55 ± 43.94 s
same,antidepressant activity (behavioral despair test),male white rats [2]; [13],significant antidepressant activity
same,time after which antidepressive effect was observed,"C57BL/6J mice [6]; 90 mg/kg i.p. once daily, earlier than for comparative drugs",2 days
O=C(CCNNC(=O)c1ccncc1)NCc1ccccc1 [Nyalamidum],LD50,[7],820 mg/kg
CN(C)CCCC1(c2ccc(F)cc2)OCc2cc(C#N)ccc21 (centres unmarked) [cypramile],LD50,[7],1.7 mg/kg
CN(C)CCCN1c2ccccc2CCc2ccccc21 [melipramine],Latency time,"C57BL/6J mice [6]; 7 mg/kg i.p., 2 days course",13.5 ± 1.8 s
same,"Non-escaping animals, %","C57BL/6J mice [6]; 7 mg/kg i.p., 2 days course",43%
same,Latency time,"C57BL/6J mice [6]; 7 mg/kg i.p., 6 days course",11.8 ± 1.5 s
same,"Non-escaping animals, %","C57BL/6J mice [6]; 7 mg/kg i.p., 6 days course",29%
same,Latency time,"C57BL/6J mice [6]; 7 mg/kg i.p., 12 days course",9.2 ± 1.1 s
same,"Non-escaping animals, %","C57BL/6J mice [6]; 7 mg/kg i.p., 12 days course",11* %
Cc1ccc2c(c1)c1c3n2CCNC3CCC1 (centres unmarked) [pirazidole],Latency time,"C57BL/6J mice [6]; 10 mg/kg i.p., 2 days course",13.6 ± 1.1 s
same,"Non-escaping animals, %","C57BL/6J mice [6]; 10 mg/kg i.p., 2 days course",39%
same,Latency time,"C57BL/6J mice [6]; 10 mg/kg i.p., 6 days course",10.0 ± 1.4 s
same,"Non-escaping animals, %","C57BL/6J mice [6]; 10 mg/kg i.p., 6 days course",18%
same,Latency time,"C57BL/6J mice [6]; 10 mg/kg i.p., 12 days course",8.3 ± 0.7 s
same,"Non-escaping animals, %","C57BL/6J mice [6]; 10 mg/kg i.p., 12 days course",14* %
